Data as given in ChEMBL document CHEMBL1155276, “Anti-listerial activity and structure-activity relationships of the six major tyrocidines, cyclic decapeptides from Bacillus aneurinolyticus” (Bioorg Med Chem, 2009).
pIC50: −log10 of the molar value. Non-standard residues stand in square brackets, D forms with d. Residues, ends and D or L forms follow the SMILES beside them. Orn = NCCC[C@H](N)C(=O)O

Tests used:
Listeria monocytogenes [1] = assay: Antibacterial activity against leucocin A-sensitive Listeria monocytogenes B73 after 16 hrs by broth microdilution assay; format: functional, organism-based; conditions: B73, 16 h
Listeria monocytogenes [2] = assay: Antibacterial activity against leucocin A-sensitive Listeria monocytogenes B73 after 16 hrs by micro-gel well diffusion assay; format: functional
Listeria monocytogenes [3] = assay: Antibacterial activity against leucocin A-resistant Listeria monocytogenes B73-MR1 after 16 hrs by broth microdilution assay; format: functional, organism-based; conditions: B73-MR1, 16 h
Listeria monocytogenes [4] = assay: Antibacterial activity against leucocin A-resistant Listeria monocytogenes B73-MR1 after 16 hrs by micro-gel well diffusion assay; format: functional
Listeria monocytogenes [5] = assay: Antilysterial activity against leucocin A-sensitive Listeria monocytogenes B73 assessed as bacterial lysis per min at 10 uM by broth microdilution assay; format: functional
Listeria monocytogenes [6] = assay: Antilysterial activity against leucocin A-sensitive Listeria monocytogenes B73 assessed as bacterial lysis at 10 uM after 60 mins by broth microdilution assay; format: functional
Listeria monocytogenes [7] = assay: Antilysterial activity against leucocin A-sensitive Listeria monocytogenes B73 assessed as bacterial lysis half life at 10 uM by broth microdilution assay; format: functional, organism-based
Micrococcus luteus [8] = assay: Antibacterial activity against Micrococcus luteus NCTC 8340 after 16 hrs by broth microdilution assay; format: functional, organism-based; conditions: NCTC 8340, 16 h
Micrococcus luteus [9] = assay: Antibacterial activity against Micrococcus luteus NCTC 8340 after 16 hrs by micro-gel well diffusion assay; format: functional
Escherichia coli = assay: Antibacterial activity against Escherichia coli HB101 at 200 ug/mL after 16 hrs by broth microdilution assay; format: functional

| SMILES | pIC50 (Listeria monocytogenes [1]) | ICmax (Listeria monocytogenes [2]) | pIC50 (Listeria monocytogenes [3]) | ICmax (Listeria monocytogenes [4]) | Activity (Listeria monocytogenes [5]) | Activity (Listeria monocytogenes [6]) | T1/2 (Listeria monocytogenes [7]) | pIC50 (Micrococcus luteus [8]) | ICmax (Micrococcus luteus [9]) | Activity (Escherichia coli) | IC50 (Listeria monocytogenes [1]) | IC50 (Listeria monocytogenes [3]) | IC50 (Micrococcus luteus [8]) |
| --- | --- | --- | --- | --- | --- | --- | --- | --- | --- | --- | --- | --- | --- |
| CC(C)C[C@@H]1NC(=O)[C@H](CCCN)NC(=O)[C@H](C(C)C)NC(=O)[C@@H]2CCCN2C(=O)[C@@H](Cc2ccccc2)NC(=O)[C@H](CC(C)C)NC(=O)[C@H](CCCN)NC(=O)[C@H](C(C)C)NC(=O)[C@@H]2CCCN2C(=O)[C@@H](Cc2ccccc2)NC1=O [GRAMICIDIN S] (cyclo(L[dF]PV[Orn]L[dF]PV[Orn])) | 5.18 | 11 µM | 5.41 | 6.2 µM | 1.61% | 70% | 38.5 min | 5.17 | 31 µM |  |  |  |  |
| CC(C)C[C@@H]1NC(=O)[C@H](CCCCN)NC(=O)[C@H](C(C)C)NC(=O)[C@H](Cc2ccc(O)cc2)NC(=O)[C@H](CCC(N)=O)NC(=O)[C@H](CC(N)=O)NC(=O)[C@@H](Cc2ccccc2)NC(=O)[C@H](Cc2ccccc2)NC(=O)[C@@H]2CCCN2C(=O)[C@@H](Cc2ccccc2)NC1=O [TYROCIDINE A1] | 4.74 | 38 µM | 5.00 | 16 µM | 1.47% | 62% | 32.2 min | 4.59 | 72 µM | <50% |  |  |  |
| CC(C)C[C@@H]1NC(=O)[C@H](CCCN)NC(=O)[C@H](C(C)C)NC(=O)[C@H](Cc2ccc(O)cc2)NC(=O)[C@H](CCC(N)=O)NC(=O)[C@H](CC(N)=O)NC(=O)[C@@H](Cc2ccccc2)NC(=O)[C@H](Cc2ccccc2)NC(=O)[C@@H]2CCCN2C(=O)[C@@H](Cc2ccccc2)NC1=O [TYROCIDINE A] (cyclo(F[dF]NQYV[Orn]L[dF]P)) | 4.89 | 25 µM | 5.00 | 16 µM | 1.62% | 59% | 32.3 min | 4.66 | 70 µM | <50% |  |  |  |
| CC(C)C[C@@H]1NC(=O)[C@H](CCCCN)NC(=O)[C@H](C(C)C)NC(=O)[C@H](Cc2ccc(O)cc2)NC(=O)[C@H](CCC(N)=O)NC(=O)[C@H](CC(N)=O)NC(=O)[C@@H](Cc2ccccc2)NC(=O)[C@H](Cc2c[nH]c3ccccc23)NC(=O)[C@@H]2CCCN2C(=O)[C@@H](Cc2ccccc2)NC1=O [TYROCIDINE B1] | 5.09 | 15 µM | 5.17 | 10 µM | 1.68% | 63% | 29.6 min | 5.38 | 8.9 µM | <50% |  |  |  |
| CC(C)C[C@@H]1NC(=O)[C@H](CCCN)NC(=O)[C@H](C(C)C)NC(=O)[C@H](Cc2ccc(O)cc2)NC(=O)[C@H](CCC(N)=O)NC(=O)[C@H](CC(N)=O)NC(=O)[C@@H](Cc2ccccc2)NC(=O)[C@H](Cc2c[nH]c3ccccc23)NC(=O)[C@@H]2CCCN2C(=O)[C@@H](Cc2ccccc2)NC1=O [TYROCIDINE B] | 5.00 | 15 µM | 5.11 | 12 µM | 1.53% | 64% | 28.8 min | 5.19 | 9.9 µM | <50% |  |  |  |
| CC(C)C[C@@H]1NC(=O)[C@H](CCCCN)NC(=O)[C@H](C(C)C)NC(=O)[C@H](Cc2ccc(O)cc2)NC(=O)[C@H](CCC(N)=O)NC(=O)[C@H](CC(N)=O)NC(=O)[C@@H](Cc2c[nH]c3ccccc23)NC(=O)[C@H](Cc2c[nH]c3ccccc23)NC(=O)[C@@H]2CCCN2C(=O)[C@@H](Cc2ccccc2)NC1=O [TYROCIDINE C1] | 5.03 | 22 µM | 5.12 | 16 µM | 1.55% | 60% | 27.5 min | 5.14 | 15 µM | <50% |  |  |  |
| CC(C)C[C@@H]1NC(=O)[C@H](CCCN)NC(=O)[C@H](C(C)C)NC(=O)[C@H](Cc2ccc(O)cc2)NC(=O)[C@H](CCC(N)=O)NC(=O)[C@H](CC(N)=O)NC(=O)[C@@H](Cc2c[nH]c3ccccc23)NC(=O)[C@H](Cc2c[nH]c3ccccc23)NC(=O)[C@@H]2CCCN2C(=O)[C@@H](Cc2ccccc2)NC1=O [TYROCIDINE C] | 5.02 | 13 µM | 5.15 | 11 µM | 1.48% | 66% | 31.2 min | 5.19 | 9 µM | <50% |  |  |  |
| CC(C)C[C@@H]1NC(=O)[C@H](CCCN)NC(=O)[C@H](C(C)C)NC(=O)[C@H](Cc2ccc(O)cc2)N[C@@H](CCC(=O)O)C(=O)N[C@@H](CC(N)=O)C(=O)[C@@H](Cc2ccccc2)NC(=O)[C@H](Cc2ccccc2)NC(=O)[C@@H]2CCCN2C(=O)[C@@H](Cc2ccccc2)NC1=O [TYROTHRICIN] |  | 21 µg/mL |  | 29 µg/mL |  |  |  |  | 6.3 µg/mL |  | 12 µg/mL | 9.7 µg/mL | 3.5 µg/mL |
